Values after ≈ are worked out from the molar mass of the structure shown. Where only a bound is given, the exact number is not on record here.

The conditions of this data set: buffer; pH 7.4; 200.0 µM.
Usually solubility (kinetic) stands for the concentration staying in solution when a stock, usually in DMSO, is diluted into the medium. `OCC[N+]12CCC(CC1)C(C(O)(c1ccccc1)c1ccccc1)C2` (configuration not stated) gave a solubility (kinetic) of over 50.8 µg/mL.
With `Cn1ccsc1=NC(=O)c1ccccc1OC(F)F` the figure was 38.7 µg/mL (≈ 136 µM).
With `Cc1ccc2oc(=O)n(CC(=O)OCCC(C)C)c2c1` the figure was 16 µg/mL (≈ 57.7 µM); with `CCOc1cc(C)c(S(=O)(=O)NCc2ccccn2)cc1C`, over 48.1 µg/mL.
The figure for `CCOc1ccc(NC2=NCCCS2)cc1` is over 35.4 µg/mL.
For the compound `NC(=O)C1CCN(C(=O)Cc2ccsc2)CC1`, the solubility (kinetic) is over 37.8 µg/mL.
The figure for `Cl.NC(N)=NC(N)=Nc1cccc(Cl)c1` is over 37.2 µg/mL; for `O=C(CN1CCCc2ccccc21)N1CCc2ccccc21` it is 4.8 µg/mL (≈ 16.4 µM).
The figure for `Cc1cccc(OCCNC(=O)CCc2ccccc2)c1` is 34.4 µg/mL (≈ 121 µM); for `Cc1cccc(N2CCN(C(=O)[C@H](C)N3C(=O)C4CC=CCC4C3=O)CC2)c1C` (some centres not stated) it is over 59.3 µg/mL.
The figure for `O=C1NC2(CCCCCC2)C(=O)N1Cc1ccccc1` is over 40.9 µg/mL; for `CCOC(=O)C1=C(CCl)NC(=O)NC1c1ccc2c(c1)OCO2` (configuration not stated) it is over 50.8 µg/mL; for `CCOc1ccc(N2CC(C(=O)NC3CCCCCC3)CC2=O)cc1` (configuration not stated) it is 15.2 µg/mL (≈ 44.1 µM).
Regarding `Cc1ccsc1CNC12CC3CC(CC(C3)C1)C2.Cl`, the kinetic solubility came out at 38.1 µg/mL.
With `Cc1nc(NC(=O)C2CC2)sc1C(=O)Nc1ccccc1` the figure was 3.8 µg/mL (≈ 12.6 µM).
The figure for `Cc1cccc(NC(=O)COC(=O)CC2CCCC2)c1C` is over 43.4 µg/mL; for `O=C(Nc1ccc(Cl)cc1)N1CCOC12CCCCC2` it is over 44.2 µg/mL; for `O=C(O)c1ccccc1N(Cc1ccccc1)C(=O)COc1ccccc1` it is over 54.2 µg/mL.
With `CN(C)C(CNC(=O)c1ccco1)c1cccs1` (configuration not stated) the figure was over 39.7 µg/mL; with `O=c1c(Cc2ccccc2)c(O)ccn1C1CCCCCCC1`, 1.5 µg/mL (≈ 4.82 µM); with `CCN1CCN(C(=O)c2cc(=O)c3cc(C)ccc3o2)CC1`, over 45.1 µg/mL.
On to `Cc1csc(NC(=O)c2cnc3ccccc3n2)n1`, for which the solubility (kinetic) is 12.5 µg/mL (≈ 46.2 µM).
`Cc1ccc(S(=O)(=O)NCC(=O)OCC(=O)Nc2ccc(C)c(S(=O)(=O)N3CCOCC3)c2)cc1` showed a solubility (kinetic) of over 78.8 µg/mL.
Regarding `O=C(OCC(=O)N1CCN(c2ccc(F)cc2)CC1)c1cnc2ccccc2n1`, the solubility (kinetic) turned out to be 19.5 µg/mL (≈ 49.4 µM).
The figure for `O=C(c1ccc2[nH]c(=O)c(=O)[nH]c2c1)N1CCc2ccccc21` is 43 µg/mL (≈ 140 µM); for `Cc1cccc(NC(=O)CCN2CCC(C)CC2)c1` it is over 39.1 µg/mL.
The figure for `CC(C)Cc1ccc(/C=C/C(=O)N2CCCCC2)cc1` is 11.6 µg/mL (≈ 42.7 µM); for `O=C(CCCc1nc(-c2ccccc2Cl)no1)N1CCOCC1` it is over 50.4 µg/mL; for `CCCS(=O)(=O)c1cscc1NC(=O)c1c(-c2c(F)cccc2Cl)noc1C` it is 0.9 µg/mL (≈ 2.03 µM).
The figure for `O=C(CSCc1ccccc1Br)Nc1ccccc1` is 29.5 µg/mL (≈ 87.7 µM).
For the compound `Nc1ccc(CCC(=O)N2CCCC2)cc1`, the solubility (kinetic) is over 32.7 µg/mL.
The figure for `C=Cn1cc[n+](CC(=O)c2ccc(Br)cc2)c1.[Br-]` is over 55.8 µg/mL.
The figure for `CC1CCCCC12NC(=O)N(CC(=O)Nc1ccc(OC(F)F)cc1)C2=O` (configuration not stated) is 18.2 µg/mL (≈ 47.7 µM); for `COc1cccc(C=NCCCN=Cc2cccc(OC)c2O)c1O` it is over 51.4 µg/mL.
The figure for `Cc1cccc(NC(=O)c2cc3cc([N+](=O)[O-])ccc3s2)n1` is under 0.2 µg/mL; for `CC(C(=O)N(C)C1CCCCC1)N1CCC(C(N)=O)CC1` (configuration not stated) it is 43.1 µg/mL (≈ 146 µM).
As for `O=C(COc1ccc(Cl)cc1Br)Nc1ccncc1`, the solubility (kinetic) turned out to be 5 µg/mL (≈ 14.6 µM).
The figure for `CCc1ccc(N2CN(CCc3ccccc3)CNC2=S)cc1` is 1.6 µg/mL (≈ 4.92 µM); for `Cn1c(=NC(=O)COc2ccccc2)sc2cccc(F)c21` it is under 0.3 µg/mL; for `CCN1CCN(CCC(=O)Nc2ccccc2C)CC1` it is over 41.3 µg/mL.
The figure for `COc1cccc(NC(=S)N2CCC(Cc3ccccc3)CC2)c1` is 5.5 µg/mL (≈ 16.2 µM); for `CCNC(=S)N(Cc1cc2c(C)ccc(C)c2[nH]c1=O)C1CCCC1` it is under 0.3 µg/mL.
The figure for `COc1cccc(CN(C)Cc2c(O)ccc3ccccc23)c1` is 29.6 µg/mL (≈ 96.3 µM).
Regarding `Cc1ccc(OCC(=O)Nc2ccc(NC(=O)c3ccccc3)c(C)c2)cc1`, the solubility (kinetic) stood at 1 µg/mL (≈ 2.67 µM).
For the compound `CCP(=O)(c1cccc([N+](=O)[O-])c1)c1cccc([N+](=O)[O-])c1`, the solubility (kinetic) was over 48 µg/mL.
As to `CC1CCCCC1NC(=O)CCCN1C(=O)c2ccccc2C1=O` (configuration not stated), the kinetic solubility stood at 15.9 µg/mL (≈ 48.4 µM).
With `COc1ccc([N+](=O)[O-])cc1NC(=O)COC(C)=O` the figure was 35.7 µg/mL (≈ 133 µM); with `O=S(=O)(Nc1nccs1)c1ccc(F)cc1`, over 38.7 µg/mL; with `COc1cc(NC(=S)NC2CC(C)(C)NC(C)(C)C2)cc(OC)c1`, over 52.7 µg/mL.
The figure for `CCC(=O)Nc1ccc2oc(-c3cccnc3)nc2c1` is 38.4 µg/mL (≈ 144 µM).
With `Cc1ccc(C(=O)NCCC(=O)N2CCCC2)cc1` the figure was 39 µg/mL (≈ 150 µM); with `CC12CCC(=O)N1C(C(=O)NCCc1ccccc1)CS2` (configuration not stated), 37.6 µg/mL (≈ 124 µM).

The record behind these values is PubChem BioAssay AID1996.
